Here are results for 87 molecules from a melting point compilation (Tetko et al.; mined from patent text by program, amines drawn as free bases though some values may be those of a salt).

The structures appear in SMILES notation.

With `CC(C)(CC(O)(Cn1cc(Cl)c(=O)c2cnccc21)C(F)(F)F)c1cccc2c1OCC2` (configuration not stated), the melting point was in the range of 158 to 160 °C.

As to `COc1ccnc(N2CCN(CC3(CNC(C)=O)C=CC=CC3)CC2)n1` (configuration not stated), the melting point was 144 to 145 °C.

With `CCCCc1nc(Cl)c(COC)n1Cc1ccc(-c2ccccc2NS(=O)(=O)C(F)(F)F)cc1`, the melting point lay within 148 to 150 °C.

For the molecule `COc1ccc(-c2cc(CCC(=O)O)sc2-c2ccc(OC)cc2)cc1`, the melting point is 96 °C.

As for `O=C1N[C@H](CO)C[C@H]1C1CCCCC1`, the melting point fell in the range of 96 to 97 °C.

In turn, `CCOc1ccc(-n2cccc2-c2ccc(S(N)(=O)=O)cc2)cc1` gave a melting point of 126 to 128 °C.

Molecule `CCOCCNC(=O)n1cc(F)c(=O)[nH]c1=O` returned a melting point of 134 to 135 °C.

For `O=C1c2c(Cl)cccc2-n2cnc(-c3nnc(-c4ccccc4)o3)c2[C@@H]2CCCN12`, the melting point was 221 to 222 °C.

On to `NCCc1c2ccccc2n2c1[nH]c(=O)c1ccccc12`, for which the melting point was > 300 °C.

Turning to `CN[C@@H]1CN(c2cc3c(cc2F)c(=O)c(C(=O)O)cn3C(C)(C)C)[C@H]1C` (relative stereo), the melting point is 194 to 195 °C.

The molecule `CCN(CC)C(=O)c1cc2ccccc2c(-c2ccc(C)cc2)n1` registered a melting point of 113 °C.

The molecule `CCCc1c(OCCCCCOc2ccc(OCCCC(=O)O)cc2CCC(=O)O)ccc2c1OCCC2=O` displayed a melting point of 119 to 124 °C.

Turning to `O=C(CF)NOC(=O)C(F)(F)F`, the melting point lay in the range of 56 to 59 °C.

`NC(=O)c1ccc2c(O)cncc2c1`: the melting point is > 250 °C.

In turn, `COC(=O)c1cc(O)ccc1OC` displayed a melting point of 110 to 112 °C.

Take `COc1ccc(OCCOCn2cnc3ncnc(N)c32)cc1`: the melting point was in the range of 129 to 130 °C.

The molecule `COc1ccc(/C=C/c2c(Cl)cncc2Cl)cc1OC1CCCC1` registered a melting point of 99 to 101 °C.

Consider `Cc1ccc2nc(N3CCN(c4ncccc4C(F)(F)F)CC3)[nH]c2c1`, for which the melting point was 216 to 217 °C.

Molecule `O=C(O)CCCOc1ccc(CCNC(=O)C2Cc3ccccc3N2S(=O)(=O)c2ccc(-c3cccc(C(F)(F)F)c3)cc2)cc1` (configuration not stated) had a melting point of 70 °C.

Regarding `CCCc1nc2c(N)nc3cc(OCCN(CCOc4ccc5c(c4)nc(N)c4nc(CCC)sc45)C(N)=O)ccc3c2s1`, the melting point lay within 213 to 216 °C.

Regarding `CNn1cc(C(=O)O)c(=O)c2cc(F)c(Cl)cc21`, the melting point was in the range of 275 to 279 °C.

In turn, `CCOc1cc(C)c(CCl)c(C)c1C` gave a melting point of 63 to 64 °C.

Molecule `COc1c(/C=C/C(=O)Nc2ccccc2)c(=O)c2ccc(Cl)cc2[nH]c1=O` yielded a melting point of 215 to 217 °C.

Turning to `COC(=O)CC[C@H](NC(=O)c1ccc(C#Cn2cnc3nc(C)c(OC(=O)C(C)(C)C)c-3c2O)cc1)C(=O)OC`, the melting point worked out at 163 °C.

`Fc1ccc(F)c(CN2CCNc3ncc(-c4ccc(N5CCOCC5)nc4)cc32)c1`: the melting point lay within 206 to 207 °C.

Turning to `Cc1cnc2c(c1)CCCC2C(N)=S` (configuration not stated), the melting point is 149 °C.

As for `O=C(COC(=O)Cc1ccccc1Nc1c(Cl)cccc1Cl)NCCO[N+](=O)[O-]`, the melting point fell in the range of 81 to 83 °C.

`COc1cc(S(N)(=O)=O)cc(C(=O)NC2CCN(CC3CCCCC3)C2)c1OC` (configuration not stated) yielded a melting point of 167 °C.

The molecule `OCc1ccc(I)nc1` showed a melting point of 102 °C.

Regarding `CCOC(=O)c1ccc(NC(=O)N2CCc3cc(SC)c(C(F)(F)F)cc32)cc1`, the melting point was > 200 °C.

The molecule `COC(=O)c1cnc(N2CCNC2=O)s1` registered a melting point of 205 to 208 °C.

Molecule `CC(O)=C(C#N)C(=O)Nc1cccc(S(C)(=O)=O)c1` displayed a melting point of 213 to 214 °C.

Regarding `O=C(CN1CCN(c2ccc(C(=O)O)cc2)CC1)Nc1ccc(Cl)cc1`, the melting point fell in the range of 263 to 265 °C.

Take `O=C(CN1CCC(Cc2ccc(F)cc2)CC1)Nc1ccc2c(c1)NC(=O)CO2`: the melting point lay in the range of 185 to 187 °C.

Molecule `Cc1nc(-n2cnn(CCOc3ccc(F)cc3)c2=O)sc1C(=O)NCc1cccnc1` gave a melting point of 154 to 155 °C.

`CC1(c2ccccc2)OC(=S)N(Nc2ccccc2)C1=O` (configuration not stated) showed a melting point of 81 to 85 °C.

`O=C(c1ccc(-c2ncn[nH]2)cc1)N1Cc2cccn2Cc2ccccc21` displayed a melting point of 225 to 227 °C.

On to `Cn1cc(Br)cc(Nc2ccccn2)c1=O`, for which the melting point was in the range of 153 to 154 °C.

In the case of `CCC(=O)C(Cc1cc(O)c(O)c([N+](=O)[O-])c1)C(=O)CC`, the melting point is 126 to 131 °C.

As to `CC(CCC(F)(F)C(C)(C)O)C1CCC2C3CCC4CC(O)CCC4(C)C3CCC12C` (configuration not stated), the melting point came to 142 °C.

`CCCCCCC1(CCCCCC)c2cc(Cl)ccc2-c2ccc(Cl)cc21` came in with a melting point of 66 to 67 °C.

For `COc1ccc(CSc2cccc3c2C(=O)c2cccc(SCc4ccc(OC)cc4)c2C3=O)cc1`, the melting point lay within 297 to 299 °C.

In turn, `O=C(O)c1cc(-c2ccccc2)c2ccccc2n1` displayed a melting point of 170 to 171 °C.

Take `O=c1[nH]c2ncc(-c3ccc(-n4ccnn4)cc3)nc2n1CC1CCCCC1`: the melting point was in the range of 276 to 278 °C.

For the molecule `CCC(c1ccccc1)c1c(O)c2c(oc1=O)CCCCCC2` (configuration not stated), the melting point fell in the range of 201 to 202 °C.

Molecule `CSCC[C@H](NC(=O)[C@@H](N)CC(C)C)[C@@H](O)c1nccs1` came in with a melting point of 83 to 85 °C.

`NCC1Cc2cc(Cl)cc(-c3ccc(F)c(F)c3)c2O1` (configuration not stated): the melting point was > 250 °C.

Regarding `CCNc1ccc(C(=O)Nc2ccc3ccc(OC)nc3n2)cc1`, the melting point is 134 °C.

With `CCOC(=O)C(CC1C(O)C2CCN1CC2)c1ccccc1` (configuration not stated), the melting point was 148 °C.

`CCS(=O)(=O)c1ccc(Oc2ccc(Cl)c(Cl)c2)nc1C#N` gave a melting point of 150 to 151 °C.

Consider `Cc1nc2cc(NC(=O)c3cc4cc(C(F)(F)F)cnc4n3Cc3cccc(F)c3)ccc2n1C`, for which the melting point fell in the range of 263 to 265 °C.

For the molecule `C[C@]12CC(=C(F)F)[C@H]3[C@@H](CCC4=CC(=O)CC[C@@H]43)[C@@H]1CCC2=O`, the melting point was 158 to 164 °C.

On to `COC(=O)Cc1c(C)nn(-c2ccccc2)c1C`, for which the melting point lay in the range of 63 to 64 °C.

The molecule `OCC1OC(n2c(Cl)nc3cc(Cl)c(Cl)cc32)C(O)C1F` (configuration not stated) registered a melting point of 238 °C.

As for `CC1(C)SC(c2ccc3c(c2)CCC3)NC1C(=O)O` (configuration not stated), the melting point was 140 to 142 °C.

Molecule `COCCCCCCCCCCCC(=O)NCc1ccccc1` gave a melting point of 77.7 to 79.4 °C.

The molecule `O=C1CC(c2cccc(-c3nc(CO)cs3)c2)=Nc2ccc(-n3cccc3)cc2N1` came in with a melting point of 238 to 240 °C.

For `CC(C)(C)OC(=O)Nc1ccc(F)c(F)c1`, the melting point lay within 135 to 137 °C.

`CCC(C(N)=O)N(Cc1ccc2nc(NCCCN3CCOCC3)n(Cc3nc(C)ccc3OC)c2c1)c1cc(C)cc(C)c1` (configuration not stated) returned a melting point of 130 °C.

For `CS(=O)(=O)NC(=O)C1(CCCCCCCCCCCCC2(C(=O)NCCO)CC2)CC1`, the melting point was 104 to 105 °C.

The molecule `Cc1c(C2=CCC(Cc3ccccc3)(N(C)C)CC2)[nH]c2ccc(C(F)(F)F)cc12` (configuration not stated) yielded a melting point of 119 to 120 °C.

Molecule `CCN1C(=O)C(C)(C)C(=O)N(C)c2cc(CN(CCn3cc(C)c4occc4c3=O)Cc3cc(C)nn3C)ccc21` displayed a melting point of 193 to 195 °C.

`CCOC(=O)c1cn(C2CC2)c2c(OC(F)F)c(F)c(F)c(N)c2c1=O`: the melting point lay in the range of 295 to 296 °C.

In the case of `O=C(Oc1ccc([N+](=O)[O-])cc1)OC1CCN(C(=O)Oc2ccc(Oc3ccccc3)cc2)CC1`, the melting point lay in the range of 108 to 109 °C.

`COc1ccc(S(=O)(=O)c2ccccc2)cc1S(=O)(=O)NCCc1cccnc1` showed a melting point of 181 to 183 °C.

In the case of `Nc1nc(N2CCCC2)c2ncn([C@@H]3C[C@H](CO)[C@@H](O)C3)c2n1`, the melting point is 114 to 117 °C.

In the case of `CN(c1cccc2cc(C3=NCC(C)(CN4CCNCC4)S3)[nH]c12)S(=O)(=O)c1cccs1` (configuration not stated), the melting point fell in the range of 178 to 180 °C.

As to `CS(=O)(=O)c1ccc(NCCc2[nH]c3c(cnc4cc(Cl)ccc43)c2C=NNc2ccccc2)cc1`, the melting point lay within 185 to 186 °C.

The molecule `CCCCCC(CC(=O)Nc1cc(CO)ccc1C(C)(C)C)c1ccccc1C(F)(F)F` (configuration not stated) yielded a melting point of 147 to 148 °C.

In turn, `COc1ccc(-n2nc(-c3ccc(OC)c(CCC(=O)O)c3OC)cc2-c2ccc(Cl)cc2)cc1` returned a melting point of 100 to 101 °C.

As for `CCCCOC(=O)C1CC2CC(CP(=O)(O)O)CCC2CN1` (configuration not stated), the melting point was 161 to 169 °C.

In turn, `COC(=O)CCCC#Cc1cc(Cl)ccc1NS(=O)(=O)c1ccc2c(c1)OCCN2C` displayed a melting point of 131 to 133 °C.

Molecule `Cc1nc(Cl)n(-c2ccccc2)n1` had a melting point of 81 to 84 °C.

`O=C(CO)NCCCOCCCCOCCCNC(=O)CO` gave a melting point of 67 to 71 °C.

Turning to `CN1Cc2c(C(=O)NN)ncn2-c2ccccc2C1=O`, the melting point was 312 to 313 °C.

In the case of `O=C(Nc1ccn2cc(CO)nc2c1)c1cc2cc(C(F)(F)F)ccc2n1Cc1cccc(F)c1`, the melting point was in the range of 254 to 255 °C.

Regarding `COC(=O)c1ccc(Oc2ccc(O)cc2)cc1`, the melting point fell in the range of 130 to 134 °C.

Regarding `COc1cc(-c2ccc(C=O)cc2)nc(C)n1`, the melting point lay in the range of 114 to 115 °C.

In the case of `N#Cc1ccc(N(Cc2ccc(OS(N)(=O)=O)c(Cl)c2)n2cnnc2)cc1-c1ccccc1`, the melting point lay within 201 to 204 °C.

As to `Cn1c(C(F)(F)F)cc(=O)n(-c2cc(OC(=O)CC#N)c(Cl)cc2F)c1=O`, the melting point lay in the range of 157 to 160 °C.

`COC(=O)C(C)(C)Oc1cc(C)c(C)c(Br)c1C`: the melting point lay in the range of 66 to 68 °C.

As for `Cc1ccc(Cn2ncn(-c3nc(C)c(C(=O)NCc4csc(C(C)C)n4)s3)c2=O)cc1`, the melting point is 151 to 153 °C.

Take `NC1c2ccccc2CC12C(=O)Nc1ccccc12` (configuration not stated): the melting point lay in the range of 195 to 197 °C.

In turn, `O=C(N[C@@H](Cc1ccc(O)cc1)C(=O)O)C(=Cc1ccccc1)NC(=O)C(F)(F)F` showed a melting point of 165 to 175 °C.

Regarding `O=C(Nc1ccc2cc(CN3CCCCC3)ccc2c1)c1ccc(-c2ccc(Cl)cc2)cc1`, the melting point was in the range of 220 to 222 °C.

In turn, `COc1ccc(C2=NN(CCCCCCBr)C(=O)[C@H]3CCCC[C@@H]23)cc1OC` (relative stereo) had a melting point of 74 to 75 °C.

`CC(=O)Oc1ccc2c(c1)CCC1C2CCC2(C)C(OS(C)(=O)=O)CCC12` (configuration not stated) displayed a melting point of 120 to 122 °C.
